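Grown in 96-well plates, cells were treated for 48 hours with each compound at five concentrations. Insufficient inhibition: endpoint recorded as highest concentration tested. The concentration for 50% growth inhibition is given as GI50.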 Activity calls are given as the source filed them. Rule as the data show it: active = GI50 up to about 1.1 µM and inactive = higher.
Key:
Test in all cases: DTP human tumour cell line panel, 48 h
SF-295 = test system: SF-295
DMS-114 = test system: DMS-114
HCT-15 = test system: HCT-15
SK-MEL-5 = test system: SK-MEL-5
NCI-H460 = test system: NCI-H460
SF-268 = test system: SF-268
SN12C = test system: SN12C
OVCAR-3 = test system: OVCAR-3
COLO 205 = test system: COLO 205
NCI-H522 = test system: NCI-H522
OVCAR-8 = test system: OVCAR-8
UACC-257 = test system: UACC-257
UO-31 = test system: UO-31
EKVX = test system: EKVX
OVCAR-5 = test system: OVCAR-5
HOP-92 = test system: HOP-92
HOP-62 = test system: HOP-62
SW-620 = test system: SW-620
MDA-MB-231 = test system: MDA-MB-231
MCF7 = test system: MCF7

Structure (SMILES) | GI50 (SF-295) | GI50 (DMS-114) | GI50 (HCT-15) [µM] | GI50 (SK-MEL-5) | GI50 (NCI-H460) | GI50 (SF-268) | GI50 (SN12C) | GI50 (OVCAR-3) | GI50 (COLO 205) | GI50 (NCI-H522) | GI50 (OVCAR-8) | GI50 (UACC-257) | GI50 (UO-31) | GI50 (EKVX) | GI50 (OVCAR-5) | GI50 (HOP-92) | GI50 (HOP-62) | GI50 (SW-620) | GI50 (MDA-MB-231) | GI50 (MCF7)
Oc1ccc2c(c1)OCC1(O)Cc3cc(O)c(O)cc3C21 (configuration not stated) | > 55.5 µM (inactive) | 26.7 µM (inactive) | 20.2 | 17.7 µM (inactive) | 27.8 µM (inactive) | 27.1 µM (inactive) | 21.8 µM (inactive) | 16.2 µM (inactive) | 16.8 µM (inactive) | 21.3 µM (inactive) | 21.9 µM (inactive) | 19.9 µM (inactive) | 60.1 µM (inactive) | 27 µM (inactive) | 22.5 µM (inactive) | 21.6 µM (inactive) | > 58.1 µM (inactive) | 18.6 µM (inactive) |  | 
CCCC(=O)Oc1ccc(/C=N/NC(N)=S)nc1 | > 100 µM (inactive) | 38.2 µM (inactive) | > 100 | > 100 µM (inactive) | > 100 µM (inactive) | 60 µM (inactive) | > 100 µM (inactive) | > 100 µM (inactive) | > 100 µM (inactive) | 69 µM (inactive) | 41.8 µM (inactive) | > 100 µM (inactive) | 60.1 µM (inactive) | > 100 µM (inactive) | > 100 µM (inactive) | > 100 µM (inactive) | > 100 µM (inactive) | > 100 µM (inactive) |  | 
BrCc1ccc2ccc3ccc(CBr)nc3c2n1 | 10.4 µM (inactive) | 3.85 µM (inactive) | 2.01 | 2.77 µM (inactive) | 4.23 µM (inactive) | 3.27 µM (inactive) | 2 µM (inactive) | 1.72 µM (inactive) | 1.92 µM (inactive) |  | 4.73 µM (inactive) | 3.18 µM (inactive) | 2.12 µM (inactive) | 9.59 µM (inactive) | 9.44 µM (inactive) | 2.06 µM (inactive) | 7 µM (inactive) | 2.2 µM (inactive) | 1.62 µM (inactive) | 1.88 µM (inactive)
O=C(CC1(O)C(=O)Nc2c(Cl)ccc(Cl)c21)c1ccco1 (configuration not stated) | 20.1 µM (inactive) | 18 µM (inactive) | 25.2 | 17.8 µM (inactive) | 20.4 µM (inactive) | 25.4 µM (inactive) | 17.3 µM (inactive) | 13.5 µM (inactive) | 17.5 µM (inactive) | 44.3 µM (inactive) | 27.2 µM (inactive) | 18 µM (inactive) | 35.8 µM (inactive) | 22.6 µM (inactive) | 20.9 µM (inactive) | 22.3 µM (inactive) | 29.6 µM (inactive) | 20.1 µM (inactive) | 25.5 µM (inactive) | 14.9 µM (inactive)
Cc1cc(O)nc(CNC(=O)c2ccc3ccccc3c2)n1 | > 100 µM (inactive) | > 100 µM (inactive) | > 100 | > 100 µM (inactive) | > 100 µM (inactive) | > 100 µM (inactive) | > 100 µM (inactive) | > 100 µM (inactive) | > 100 µM (inactive) | > 100 µM (inactive) | > 100 µM (inactive) | > 100 µM (inactive) | > 100 µM (inactive) | > 100 µM (inactive) | > 100 µM (inactive) | > 100 µM (inactive) | > 100 µM (inactive) | > 100 µM (inactive) |  | 
COC(=O)c1cc2c(=O)n(C)c3ccccc3n2c1C(=O)OC | 34.3 µM (inactive) | > 100 µM (inactive) | 80.2 | > 100 µM (inactive) | > 100 µM (inactive) | 30.3 µM (inactive) | 42.5 µM (inactive) | 30 µM (inactive) | > 100 µM (inactive) | 20 µM (inactive) | 35.8 µM (inactive) | > 100 µM (inactive) | 63.1 µM (inactive) | 26.9 µM (inactive) | > 100 µM (inactive) | 33 µM (inactive) | 16.9 µM (inactive) | 64.9 µM (inactive) |  | 
CC[C@H]1CC(=O)c2c(cc3c(c2O)C(=O)c2ccccc2C3=O)[C@@]1(C#N)C(=O)OC(C)(C)C | 4.47 µM (inactive) | 3.21 µM (inactive) | 2.07 | 1.9 µM (inactive) | 2.7 µM (inactive) | 5.36 µM (inactive) | 3.97 µM (inactive) | 2.81 µM (inactive) | 1.96 µM (inactive) | 2.29 µM (inactive) | 2.62 µM (inactive) | 2.07 µM (inactive) | 2.69 µM (inactive) | 4.94 µM (inactive) | 10.3 µM (inactive) | 9.31 µM (inactive) | 1.77 µM (inactive) | 3.65 µM (inactive) |  | 
C=CCC12CCC(=O)[C@@]1(C)CC=C(O)C2=O (some centres not stated) | > 100 µM (inactive) | > 100 µM (inactive) | > 100 | > 100 µM (inactive) | > 100 µM (inactive) | > 100 µM (inactive) | > 100 µM (inactive) | > 100 µM (inactive) | > 100 µM (inactive) | > 100 µM (inactive) | > 100 µM (inactive) | > 100 µM (inactive) | > 100 µM (inactive) | > 100 µM (inactive) | > 100 µM (inactive) | > 100 µM (inactive) | > 100 µM (inactive) | > 100 µM (inactive) |  | 
